What was measured:
Eimeria spp.oocysts [1] = assay: Anticoccidiocidal activity, test A1 (oocyst count in faeces of infected chickens, medicated feed); assay type: in vivo; conditions: 23 birds in each group
Source text: A total of 92 one day old Habbared X breed chickens were used in the test. They were allocated into 4 groups (23 birds in each group), one group serving as a control group.
(§1) Each composition to be tested was mixed in a sufficient amount of feed for each group and was used for daily feeding from the day zero of the test. Fresh water was supplied ad-libetum.

Eimeria spp.oocysts [2] = assay: Anticoccidiocidal activity, test A2 (oocyst count in faeces of infected chickens, medicated feed); assay type: in vivo; conditions: 22 birds in each group
Source text: A total of 88 one day old Habbared X breed chickens were used in the test. They were allocated into 4 groups (22 birds in each group), one group serving as a control group.
as §1

Eimeria spp.oocysts [3] = assay: Anticoccidiocidal activity, test A3 (single components; oocyst count in faeces, Mc-Master technique); assay type: in vivo, chickens; conditions: 20 birds in each group; for Mean No. of Eimeria spp.oocysts/gram faeces/group, 5 d.p.i. / Mean No. of Eimeria spp.oocysts/gram faeces/group, 6 d.p.i. / Mean No. of Eimeria spp.oocysts/gram faeces/group, 7 d.p.i. / Mean No. of Eimeria spp.oocysts/gram faeces/group, 8 d.p.i. / Mean No. of Eimeria spp.oocysts/gram faeces/group, 9 d.p.i. / Mean No. of Eimeria spp.oocysts/gram faeces/group, 10 d.p.i. / Mean No. of Eimeria spp.oocysts/gram faeces/group, 12 d.p.i.: during feeding with tested product; for Mean No. of Eimeria spp.oocysts/gram faeces/group, 5 d.p.i.: oral infection with mixture of 5 Eimeria strains, ppm in feed as given per group; for Total number of oocysts: sum of 5-12 d.p.i.
Source text: A total of 100 one day old Habbared X breed chickens were used in the test. They were reared on un-medicated feed as one group during the first 3 days. After that they were allocated into 5 groups (20 each) in 5 separate (1 x 1 meter) pens. With the beginning of the day 8 of bird life, the composition to be tested was mixed into the feed of each group and was used for daily feeding. Fresh water was supplied ad-libetum. The test groups were: [table] The birds were kept on medicated feed for totally […]. […] Eimeria acervulina, E. maxima, E. necatrix, E. tenella and E. brunetti. Fresh fecal droplets were collected daily from the 4th day post experimental infection until day 13 post infection. Mean number of oocyst per gram […] for each group were calculated using the Mc-Master technique according to Soulsby (1984).

[4] = 6 d.p.i., during feeding with tested product, ppm in feed as given per group
[5] = 7 d.p.i., during feeding with tested product
[6] = 8 d.p.i., during feeding with tested product
[7] = 9 d.p.i., during feeding with tested product
[8] = 10 d.p.i., during feeding with tested product
[9] = 11 d.p.i., during feeding with tested product
[10] = 12 d.p.i., during feeding with tested product
[11] = 13 d.p.i., during feeding with tested product

Compound: Cc1nc(C)c(Cl)c(O)c1Cl [Clopidol]
- Mean No. of Eimeria spp.oocysts/gram faeces/group, 6 d.p.i. (Eimeria spp.oocysts [1]; [4]): 8 oocysts/gram faeces/group (number per thousand oocysts)
- Mean No. of Eimeria spp.oocysts/gram faeces/group, 7 d.p.i. (Eimeria spp.oocysts [1]; [5]): 9600 oocysts/gram faeces/group (number per thousand oocysts)
- Mean No. of Eimeria spp.oocysts/gram faeces/group, 8 d.p.i. (Eimeria spp.oocysts [1]; [6]): 1872 oocysts/gram faeces/group (number per thousand oocysts)
- Mean No. of Eimeria spp.oocysts/gram faeces/group, 9 d.p.i. (Eimeria spp.oocysts [1]; [7]): 3900 oocysts/gram faeces/group (number per thousand oocysts)
- Mean No. of Eimeria spp.oocysts/gram faeces/group, 10 d.p.i. (Eimeria spp.oocysts [1]; [8]): 420 oocysts/gram faeces/group (number per thousand oocysts)
- Mean No. of Eimeria spp.oocysts/gram faeces/group, 11 d.p.i. (Eimeria spp.oocysts [1]; [9]): 14 oocysts/gram faeces/group (number per thousand oocysts)
- Mean No. of Eimeria spp.oocysts/gram faeces/group, 12 d.p.i. (Eimeria spp.oocysts [1]; [10]): 53 oocysts/gram faeces/group (number per thousand oocysts)
- Mean No. of Eimeria spp.oocysts/gram faeces/group, 13 d.p.i. (Eimeria spp.oocysts [1]; [11]): 250 oocysts/gram faeces/group (number per thousand oocysts)
- Total number of oocysts (Eimeria spp.oocysts [1]; sum of 6-13 d.p.i.): 16117 oocysts/gram faeces/group (number per thousand oocysts)
- Mean No. of Eimeria spp.oocysts/gram faeces/group, 6 d.p.i. (Eimeria spp.oocysts [2]; [4]): 2 oocysts/gram faeces/group (number per thousand oocysts)
- Mean No. of Eimeria spp.oocysts/gram faeces/group, 7 d.p.i. (Eimeria spp.oocysts [2]; [5]): 900 oocysts/gram faeces/group (number per thousand oocysts)
- Mean No. of Eimeria spp.oocysts/gram faeces/group, 8 d.p.i. (Eimeria spp.oocysts [2]; [6]): 1300 oocysts/gram faeces/group (number per thousand oocysts)
- Mean No. of Eimeria spp.oocysts/gram faeces/group, 9 d.p.i. (Eimeria spp.oocysts [2]; [7]): 980 oocysts/gram faeces/group (number per thousand oocysts)
- Mean No. of Eimeria spp.oocysts/gram faeces/group, 10 d.p.i. (Eimeria spp.oocysts [2]; [8]): 1500 oocysts/gram faeces/group (number per thousand oocysts)
- Mean No. of Eimeria spp.oocysts/gram faeces/group, 11 d.p.i. (Eimeria spp.oocysts [2]; [9]): 200 oocysts/gram faeces/group (number per thousand oocysts)
- Mean No. of Eimeria spp.oocysts/gram faeces/group, 12 d.p.i. (Eimeria spp.oocysts [2]; [10]): 200 oocysts/gram faeces/group (number per thousand oocysts)
- Mean No. of Eimeria spp.oocysts/gram faeces/group, 13 d.p.i. (Eimeria spp.oocysts [2]; [11]): 130 oocysts/gram faeces/group (number per thousand oocysts)
- Total number of oocysts (Eimeria spp.oocysts [2]; sum of 6-13 d.p.i.): 5212 oocysts/gram faeces/group (number per thousand oocysts)

Compound: NC(N)=Nc1nc(CSCCC(N)=NS(N)(=O)=O)cs1 [Famo-tidine, Famotidine]
- Mean No. of Eimeria spp.oocysts/gram faeces/group, 5 d.p.i. (Eimeria spp.oocysts [3]): 0.0 oocysts/gram faeces/group (number per thousand oocysts)
- Mean No. of Eimeria spp.oocysts/gram faeces/group, 6 d.p.i. (Eimeria spp.oocysts [3]): 0.0 oocysts/gram faeces/group (number per thousand oocysts)
- Mean No. of Eimeria spp.oocysts/gram faeces/group, 7 d.p.i. (Eimeria spp.oocysts [3]): 160 oocysts/gram faeces/group (number per thousand oocysts)
- Mean No. of Eimeria spp.oocysts/gram faeces/group, 8 d.p.i. (Eimeria spp.oocysts [3]): 280 oocysts/gram faeces/group (number per thousand oocysts)
- Mean No. of Eimeria spp.oocysts/gram faeces/group, 9 d.p.i. (Eimeria spp.oocysts [3]): 460 oocysts/gram faeces/group (number per thousand oocysts)
- Mean No. of Eimeria spp.oocysts/gram faeces/group, 10 d.p.i. (Eimeria spp.oocysts [3]): 10 oocysts/gram faeces/group (number per thousand oocysts)
- Mean No. of Eimeria spp.oocysts/gram faeces/group, 12 d.p.i. (Eimeria spp.oocysts [3]): 0 oocysts/gram faeces/group (number per thousand oocysts)
- Total number of oocysts (Eimeria spp.oocysts [3]): 910 oocysts/gram faeces/group (number per thousand oocysts)

Compound: CN[C@@H]1[C@H](O[C@H]2[C@H](O[C@H]3[C@H](O)[C@@H](O)[C@H](NC(=N)N)[C@@H](O)[C@@H]3NC(=N)N)O[C@@H](C)[C@]2(O)CO)O[C@@H](CO)[C@H](O)[C@H]1O [dihydro-streptomycin, dihydrostreptomycin]
- Mean No. of Eimeria spp.oocysts/gram faeces/group, 5 d.p.i. (Eimeria spp.oocysts [3]): 0.0 oocysts/gram faeces/group (number per thousand oocysts)
- Mean No. of Eimeria spp.oocysts/gram faeces/group, 6 d.p.i. (Eimeria spp.oocysts [3]): 38 oocysts/gram faeces/group (number per thousand oocysts)
- Mean No. of Eimeria spp.oocysts/gram faeces/group, 7 d.p.i. (Eimeria spp.oocysts [3]): 710 oocysts/gram faeces/group (number per thousand oocysts)
- Mean No. of Eimeria spp.oocysts/gram faeces/group, 8 d.p.i. (Eimeria spp.oocysts [3]): 138 oocysts/gram faeces/group (number per thousand oocysts)
- Mean No. of Eimeria spp.oocysts/gram faeces/group, 9 d.p.i. (Eimeria spp.oocysts [3]): 138 oocysts/gram faeces/group (number per thousand oocysts)
- Mean No. of Eimeria spp.oocysts/gram faeces/group, 10 d.p.i. (Eimeria spp.oocysts [3]): 0 oocysts/gram faeces/group (number per thousand oocysts)
- Total number of oocysts (Eimeria spp.oocysts [3]): 956 oocysts/gram faeces/group (number per thousand oocysts)

Compound: Nc1nc2ncc(CNc3ccc(C(=O)N[C@@H](CCC(=O)O)C(=O)O)cc3)nc2c(=O)[nH]1 [folic acid]
- Mean No. of Eimeria spp.oocysts/gram faeces/group, 5 d.p.i. (Eimeria spp.oocysts [3]): 0 oocysts/gram faeces/group (number per thousand oocysts)
- Mean No. of Eimeria spp.oocysts/gram faeces/group, 6 d.p.i. (Eimeria spp.oocysts [3]): 22 oocysts/gram faeces/group (number per thousand oocysts)
- Mean No. of Eimeria spp.oocysts/gram faeces/group, 7 d.p.i. (Eimeria spp.oocysts [3]): 251 oocysts/gram faeces/group (number per thousand oocysts)
- Mean No. of Eimeria spp.oocysts/gram faeces/group, 8 d.p.i. (Eimeria spp.oocysts [3]): 310 oocysts/gram faeces/group (number per thousand oocysts)
- Mean No. of Eimeria spp.oocysts/gram faeces/group, 9 d.p.i. (Eimeria spp.oocysts [3]): 220 oocysts/gram faeces/group (number per thousand oocysts)
- Mean No. of Eimeria spp.oocysts/gram faeces/group, 10 d.p.i. (Eimeria spp.oocysts [3]): 3 oocysts/gram faeces/group (number per thousand oocysts)
- Mean No. of Eimeria spp.oocysts/gram faeces/group, 12 d.p.i. (Eimeria spp.oocysts [3]): 0 oocysts/gram faeces/group (number per thousand oocysts)
- Total number of oocysts (Eimeria spp.oocysts [3]): 806 oocysts/gram faeces/group (number per thousand oocysts)

— patent publication EP1210950B1, “Composition against Coccidiosis” (New Pharma Research Sweden AB, priority 2000, dated 2002)
